Measurements: the NIST ThermoML archive (doi:10.1016/j.tca.2016.03.002)
Numbers after ± are expanded uncertainties.

Tests used:
[1] = relative permittivity at various frequencies (dimensionless); conditions: 100 kPa, Liquid, Frequency=30 MHz, Parallel plate capacitor
[2] = 100 kPa, Liquid; for viscosity: Capillary tube (Ostwald / Ubbelohde) method; for mass density: Vibrating tube method
[3] = refractive index (Na D-line) (dimensionless); conditions: 100 kPa, Liquid, Standard Abbe refractometry
[4] = xn = mol fraction of the nth substance listed; conditions: 100 kPa, Liquid, x1 = 1; for viscosity: Capillary tube (Ostwald / Ubbelohde) method; for mass density: Vibrating tube method
[5] = relative permittivity at various frequencies (dimensionless); xn = mol fraction of the nth substance listed; conditions: 100 kPa, Liquid, Frequency=30 MHz, Parallel plate capacitor, x1 = 1
[6] = refractive index (Na D-line) (dimensionless); xn = mol fraction of the nth substance listed; conditions: 100 kPa, Liquid, Standard Abbe refractometry, x1 = 1

NC1CCCCC1 [cyclohexylamine]
Conditions	mass density, [2] [kg/m3]	refractive index, [3]	relative permittivity, [1]	viscosity, [2] [mPa·s]
293.15 K	866.86 ± 2.1	1.45934 ± 0.0044	4.65 ± 0.09	2.142 ± 0.046
298.15 K	862.315 ± 2.1	1.45663 ± 0.0044	4.56 ± 0.09	1.908 ± 0.041
303.15 K	857.774 ± 2.1	1.45325 ± 0.0044	4.47 ± 0.09	1.697 ± 0.036

CO [methanol] + NC1CCCCC1
Conditions	mass density, [4] [kg/m3]	refractive index, [6]	relative permittivity, [5]	viscosity, [4] [mPa·s]
293.15 K	791.414 ± 1.9	1.32866 ± 0.004	33.6 ± 0.67	0.585 ± 0.012
298.15 K	786.716 ± 1.9	1.32682 ± 0.004	32.62 ± 0.65	0.545 ± 0.011
303.15 K	782.032 ± 1.9	1.32444 ± 0.004	31.67 ± 0.63	0.508 ± 0.011

CO [methanol]
Conditions	mass density, [2] [kg/m3]	refractive index, [3]	relative permittivity, [1]	viscosity, [2] [mPa·s]
293.15 K	791.414 ± 1.9	1.32866 ± 0.004	33.6 ± 0.67	0.585 ± 0.012
298.15 K	786.716 ± 1.9	1.32682 ± 0.004	32.62 ± 0.65	0.545 ± 0.011
303.15 K	782.032 ± 1.9	1.32444 ± 0.004	31.67 ± 0.63	0.508 ± 0.011
